Results from US20230227435A1, “SMALL MOLECULE MODULATORS OF IL-17” (LEO PHARMA A/S, priority 2020, published 2023).

Target: T1, human IL-17AA (Homo sapiens, UniProt Q16552)
T1 construct: host or cells: HEK (human embryonic kidney) cells
T1 sequence (Q16552 24-155) 1: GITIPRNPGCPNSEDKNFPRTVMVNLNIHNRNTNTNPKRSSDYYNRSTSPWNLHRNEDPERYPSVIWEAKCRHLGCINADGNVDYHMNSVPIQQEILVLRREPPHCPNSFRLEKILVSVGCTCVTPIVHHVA
T1 sequence (Q16552 24-155) 2: T1 sequence (Q16552 24-155) 1
Assay: IL-8 release assay in human epithelial keratinocytes adult (HEKa)
Type: cell-based
Conditions: HEKa cells; 3 ng/mL HEK-human IL-17AA + 10 ng/mL human TNFalpha; 68-72 hours; IL-8 by HTRF; read-out: Rel EC50 IL-8 release assay
Procedure: Example 8: IL-8 Release Assay in Human Epithelial Keratinocytes Adult (HEKa)
Keratinocytes were seeded at 3500 cells/well in 384-well ViewPlates (Perkin Elmer) in Epilife medium (Thermo Fisher) containing human keratinocyte growth supplement (HKGS) without hydrocortisone and incubated in a humid incubator at 37° C., 5% CO2, overnight. The following day growth medium was removed and 25 μl fresh Epilife medium was added. 75 nL test compound in100% DMSO was added into each well reserved for test compounds, by the use of acoustic pipetting. The remaining wells received an equal volume of DMSO only, as vehicle control, or terfenadine in DMSO, as a positive control for any cytotoxic compounds. Subsequently, another 25 μL Epilife medium was added to each well. Finally, wells containing test compounds and wells prepared to yield maximum stimulation received 25 μL of 9 ng/mL recombinant, human embryonic kidney cell (HEK)-derived human IL-17AA+30 ng/mL human TNF-alpha, in Epilife medium. Wells prepared to define 100% inhibition of IL-17 effects received 25 μL of 30 ng/mL human TNF-alpha alone, in Epilife medium. Final concentrations were 3 ng/mL HEK-human IL-17AA+10 ng/mL human TNFalpha (maximum stimulation) and 10 ng/mL human TNFalpha alone (100% inhibition, Emax), respectively. Cells were incubated for 68-72 hours in the incubator. IL-8 released from the cells was measured by the use of a commercial homogenous time-resolved fluorescence (HTRF) assay (CisBio). 2 μL cell culture supernatant was transferred to a 384-well Proxiplate. 5 μL HTRF reagent was added and the plates were incubated sealed in the dark for 3-22 hours at room temperature. Time-resolved fluorescence was read at 665 vs 620 nm, with excitation at 320 nm, and IL-8 levels were calculated as percent of controls. Reduction of the amount of secreted IL-8 indicates decreased IL-17 signaling. Concentration response curves were fitted by the use of a four-parameter logistic equation. Relative IC50 and Emax were reported from curves showing acceptable fit (r^2>0.9). Cytotoxicity was measured in the cell-containing Viewplates following addition of 7 μL PrestoBlue (Thermo Fisher) and incubation for 2.5-3 hours at room temperature, by measuring fluorescence at 615 nm (excitation at 535 nm). Fluorescence was directly proportional to the amount of metabolic activity. Reduction of fluorescence signal indicated cytotoxicity.
Compounds of the present invention were tested in the IL-8 release assay in human epithelial keratinocytes.

Row | Compound | EC50 [nM]
1 | Cc1n[nH]c(C)c1-c1ccc(NC(=O)C(c2nnc(-c3ccnn3C(C)C)[nH]2)C(C2CC2)C2CC2)cc1 (single isomer, unassigned) [Example 70, 3,3-dicyclopropyl-N-[4-(3,5-dimethyl-1H-pyrazol-4-yl)phenyl]-2-[5-(2-isopropylpyrazol-3-yl)-4H-1,2,4-triazol-3-yl]propanamide] | 27
2 | Cc1n[nH]c(C)c1-c1ccc(NC(=O)C(c2nnc(-c3ccnn3C(C)C)[nH]2)C(C2CC2)C2CC2)cc1 (single isomer, unassigned) [Example 71, 3,3-dicyclopropyl-N-[4-(3,5-dimethyl-1H-pyrazol-4-yl)phenyl]-2-[5-(2-isopropylpyrazol-3-yl)-4H-1,2,4-triazol-3-yl]propanamide] | > 625
3 | Cc1n[nH]c(C)c1-c1ccc(NC(=O)C(c2nnc(-c3ccccc3)[nH]2)C(C2CC2)C2CC2)cc1 (stereo not shown) [Example 1, 3,3-dicyclopropyl-N-[4-(3,5-dimethyl-1H-pyrazol-4-yl)phenyl]-2-(5-phenyl-4H-1,2,4-triazol-3-yl)propanamide] | 290
4 | Cc1n[nH]c(C)c1-c1ccc(NC(=O)C(c2nc(-c3ccccc3)c[nH]2)C(C2CC2)C2CC2)cc1 (stereo not shown) [Example 2, 3,3-dicyclopropyl-N-[4-(3,5-dimethyl-1H-pyrazol-4-yl)phenyl]-2-(4-phenyl-1H-imidazol-2-yl)propanamide] | 310
5 | Cc1n[nH]c(C)c1-c1ccc(NC(=O)C(c2nc(-c3ccccc3)c(Cl)[nH]2)C(C2CC2)C2CC2)cc1 (stereo not shown) [Example 3, 2-(5-chloro-4-phenyl-1H-imidazol-2-yl)-3,3-dicyclopropyl-N-[4-(3,5-dimethyl-1H-pyrazol-4-yl)phenyl]propanamide] | 3100
6 | Cc1n[nH]c(C)c1-c1ccc(NC(=O)C(c2nnc[nH]2)C(C2CC2)C2CC2)cc1 (stereo not shown) [Example 4, 3,3-dicyclopropyl-N-[4-(3,5-dimethyl-1H-pyrazol-4-yl)phenyl]-2-(4H-1,2,4-triazol-3-yl)propanamide] | 2900
7 | Cc1n[nH]c(C)c1-c1ccc(NC(=O)C(c2nnc(-c3ccccc3F)[nH]2)C(C2CC2)C2CC2)cc1 (stereo not shown) [Example 5, 3,3-dicyclopropyl-N-[4-(3,5-dimethyl-1H-pyrazol-4-yl)phenyl]-2-[5-(2-fluorophenyl)-4H-1,2,4-triazol-3-yl]propanamide] | 390
8 | Cc1n[nH]c(C)c1-c1ccc(NC(=O)C(c2ncc[nH]2)C(C2CC2)C2CC2)cc1 (stereo not shown) [Example 6, 3,3-dicyclopropyl-N-[4-(3,5-dimethyl-1H-pyrazol-4-yl)phenyl]-2-(1H-imidazol-2-yl)propanamide] | 1300
9 | Cc1n[nH]c(C)c1-c1ccc(NC(=O)C(c2nc(-c3ccccc3)c(C)[nH]2)C(C2CC2)C2CC2)cc1 (stereo not shown) [Example 7, 3,3-dicyclopropyl-N-[4-(3,5-dimethyl-1H-pyrazol-4-yl)phenyl]-2-(5-methyl-4-phenyl-1H-imidazol-2-yl)propanamide] | 800
10 | COc1ccccc1-c1cnc(C(C(=O)Nc2ccc(-c3c(C)n[nH]c3C)cc2)C(C2CC2)C2CC2)[nH]1 (stereo not shown) [Example 9, 3,3-dicyclopropyl-N-[4-(3,5-dimethyl-1H-pyrazol-4-yl)phenyl]-2-[5-(2-methoxyphenyl)-1H-imidazol-2-yl]propanamide] | 450
11 | Cc1n[nH]c(C)c1-c1ccc(NC(=O)C(c2nnc(C3CCCC3)[nH]2)C(C2CC2)C2CC2)cc1 (stereo not shown) [Example 10, 2-(5-cyclopentyl-4H-1,2,4-triazol-3-yl)-3,3-dicyclopropyl-N-[4-(3,5-dimethyl-1H-pyrazol-4-yl)phenyl]propanamide] | 1900
12 | Cc1n[nH]c(C)c1-c1ccc(NC(=O)C(c2nnc(-c3ccnn3C(C)C)[nH]2)C(C2CC2)C2CC2)nc1F (stereo not shown) [Example 11, 3,3-dicyclopropyl-N-[5-(3,5-dimethyl-1H-pyrazol-4-yl)-6-fluoro-2-pyridyl]-2-[5-(2-isopropylpyrazol-3-yl)-4H-1,2,4-triazol-3-yl]propanamide] | 93
13 | Cc1n[nH]c(C)c1-c1ccc(NC(=O)C(c2nnc(-c3ccnn3C(C)C)[nH]2)C(C2CC2)C2CC2)c(F)c1 (stereo not shown) [Example 12, 3,3-dicyclopropyl-N-[4-(3,5-dimethyl-1H-pyrazol-4-yl)-2-fluoro-phenyl]-2-[5-(2-isopropylpyrazol-3-yl)-4H-1,2,4-triazol-3-yl]propanamide] | 140
14 | Cc1nonc1-c1nnc(C(C(=O)Nc2ccc(-c3c(C)n[nH]c3C)cc2)C(C2CC2)C2CC2)[nH]1 (stereo not shown) [Example 13, 3,3-dicyclopropyl-N-[4-(3,5-dimethyl-1H-pyrazol-4-yl)phenyl]-2-[5-(4-methyl-1,2,5-oxadiazol-3-yl)-4H-1,2,4-triazol-3-yl]propanamide] | 170
15 | Cc1n[nH]c(C)c1-c1ccc(NC(=O)C(c2nnc(-c3c(F)cnn3C)[nH]2)C(C2CC2)C2CC2)cc1 (stereo not shown) [Example 14, 3,3-dicyclopropyl-N-[4-(3,5-dimethyl-1H-pyrazol-4-yl)phenyl]-2-[5-(4-fluoro-2-methyl-pyrazol-3-yl)-4H-1,2,4-triazol-3-yl]propanamide] | 300
16 | Cc1n[nH]c(C)c1-c1ccc(NC(=O)C(c2nnc(Cc3cccnc3)[nH]2)C(C2CC2)C2CC2)cc1 (stereo not shown) [Example 15, 3,3-dicyclopropyl-N-[4-(3,5-dimethyl-1H-pyrazol-4-yl)phenyl]-2-[5-(3-pyridylmethyl)-4H-1,2,4-triazol-3-yl]propanamide] | 350
17 | Cc1n[nH]c(C)c1-c1ccc(NC(=O)C(c2nnc(Cc3cc[nH]n3)[nH]2)C(C2CC2)C2CC2)cc1 (stereo not shown) [Example 16, 3,3-dicyclopropyl-N-[4-(3,5-dimethyl-1H-pyrazol-4-yl)phenyl]-2-[5-(1H-pyrazol-3-ylmethyl)-4H-1,2,4-triazol-3-yl]propanamide] | 1500
18 | Cc1n[nH]c(C)c1-c1ccc(NC(=O)C(c2nnc(Cc3ccccc3)[nH]2)C(C2CC2)C2CC2)cc1 (stereo not shown) [Example 17, 2-(5-benzyl-4H-1,2,4-triazol-3-yl)-3,3-dicyclopropyl-N-[4-(3,5-dimethyl-1H-pyrazol-4-yl)phenyl]propanamide] | 240
19 | Cc1n[nH]c(C)c1-c1ccc(NC(=O)C(c2nnc(-c3ccccc3Cl)[nH]2)C(C2CC2)C2CC2)cc1 (stereo not shown) [Example 18, 2-[5-(2-chlorophenyl)-4H-1,2,4-triazol-3-yl]-3,3-dicyclopropyl-N-[4-(3,5-dimethyl-1H-pyrazol-4-yl)phenyl]propanamide] | 310
20 | COc1ccccc1-c1nnc(C(C(=O)Nc2ccc(-c3c(C)n[nH]c3C)cc2)C(C2CC2)C2CC2)[nH]1 (stereo not shown) [Example 19, 3,3-dicyclopropyl-N-[4-(3,5-dimethyl-1H-pyrazol-4-yl)phenyl]-2-[5-(2-methoxyphenyl)-4H-1,2,4-triazol-3-yl]propanamide] | 620
21 | Cc1n[nH]c(C)c1-c1ccc(NC(=O)C(c2nnc(-c3cnn(C)c3)[nH]2)C(C2CC2)C2CC2)cc1 (stereo not shown) [Example 20, 3,3-dicyclopropyl-N-[4-(3,5-dimethyl-1H-pyrazol-4-yl)phenyl]-2-[5-(1-methylpyrazol-4-yl)-4H-1,2,4-triazol-3-yl]propanamide] | 990
22 | Cc1n[nH]c(C)c1-c1ccc(NC(=O)C(c2nnc(-c3ccnn3C)[nH]2)C(C2CC2)C2CC2)cc1 (stereo not shown) [Example 21, 3,3-dicyclopropyl-N-[4-(3,5-dimethyl-1H-pyrazol-4-yl)phenyl]-2-[5-(2-methylpyrazol-3-yl)-4H-1,2,4-triazol-3-yl]propanamide] | 200
23 | Cc1n[nH]c(C)c1-c1ccc(NC(=O)C(c2nnc(-c3ccn(C)c(=O)c3)[nH]2)C(C2CC2)C2CC2)cc1 (stereo not shown) [Example 22, 3,3-dicyclopropyl-N-[4-(3,5-dimethyl-1H-pyrazol-4-yl)phenyl]-2-[5-(1-methyl-2-oxo-4-pyridyl)-4H-1,2,4-triazol-3-yl]propanamide] | 430
24 | CCn1nccc1-c1nnc(C(C(=O)Nc2ccc(-c3c(C)n[nH]c3C)cc2)C(C2CC2)C2CC2)[nH]1 (stereo not shown) [Example 23, 3,3-dicyclopropyl-N-[4-(3,5-dimethyl-1H-pyrazol-4-yl)phenyl]-2-[5-(2-ethylpyrazol-3-yl)-4H-1,2,4-triazol-3-yl]propanamide] | 59
25 | Cc1n[nH]c(C)c1-c1ccc(NC(=O)C(c2nnc(-c3ccn[nH]3)[nH]2)C(C2CC2)C2CC2)cc1 (stereo not shown) [Example 24, 3,3-dicyclopropyl-N-[4-(3,5-dimethyl-1H-pyrazol-4-yl)phenyl]-2-[5-(1H-pyrazol-5-yl)-4H-1,2,4-triazol-3-yl]propanamide] | 690
